Where two headings read alike, the source gives them in different places.
Key:
S. mansoni schistosomula = assay: Schistosomula screens (Roboworm, phenotype and motility); type: cell-based, Schistosoma mansoni; conditions: 72 h; for EC50: Schistosoma mansoni, dose response titrations (10 - 0.625 µM)
Description: Anthelmintic activity on the schistosomula stage of S. mansoni was evaluated using Roboworm, an integrated high-throughput, high content image analysis platform originally developed by Paveley et al. and subsequently used by our research group as previously described, [28], [50], [51]. Alternatively, the computer application Worminator can be used to assess motion of microscopic parasites such as the schistosomula stage of S. mansoni. Compounds (as single concentration or two-fold titrations) were prepared for screening in a 384-well plate (PerkinElmer, MA, USA), where solutions (1.6 mM, 0.5 μl) were wet stamped using the Biomek NX ^P liquid handling platform into Basch medium (20 μl). Negative (0.625% DMSO) and positive (Auranofin - AUR - at 10 µM final concentration in 0.625% DMSO) control wells were similarly prepared. Mechanically transformed schistosomula (about 120 parasites in 60 μl of Basch medium) were distributed into each treated well using a WellMate (Thermo Scientific, Loughborough, UK). Schistosomula/compound co-cultures were then incubated at 37°C for 72 h in a humidified atmosphere containing 5% CO 2. At 72 h, parasite/compound co-cultures were resuspended and tissue culture plates were imaged under the same conditions (37°C for 72 h in a humidified atmosphere containing 5% CO 2) using an ImageXpressXL high content imager (Molecular Devices, UK) with subsequent images processed for phenotype and motility as previously reported. Plate analysis returned a phenotype and motility score for each well and any scores below -0.15 and -0.35 (defined threshold anti-schistosomula values for phenotype and motility scores, respectively) defined a condition displaying anti-schistosomula activity. Compound screens were assessed based on the Z´ values (derived from the means and standard deviations of positive and negative controls) and those equal to or above 0.3 for both phenotype and motility were considered successful.
Phenotype and motility scores of each titration were used to generate dose response curves in GraphPad Prism 7.02 based on the corrected average score of the three replicates for each data point.

S. mansoni adult worms = assay: Adult worm screens (WormassayGP2 motility, egg count); type: cell-based, Schistosoma mansoni; conditions: 72 h
Description: For compound screening, adult worms (three worm pairs/well for compound 7 and the hit compounds of set two; one worm pair/well for the hit compounds of set three) were transferred into wells of a 48-well tissue culture plate containing 1 ml of adult worm media. Adult worms were treated with compounds previously identified as hits at 10 µM on 72 h cultured schistosomula. Worms were dosed with an appropriate volume of 10 mM stock solution of each compound (in DMSO) to have a concentration range of 50 – 6.25 µM (up to 0.5% DMSO, primary screen of compound 7). Secondary screens were performed on the structural analogues of compound 7 (only the schistosomula hits at 10 µM) at a single concentration (12.5 µM) and compared to the same concentration of the parental compound (included in the screen as reference). DMSO (0.5%) and praziquantel (10 µM in 0.5% DMSO) were also included as negative and positive control treatments (both primary and secondary screens). Treated adult worms were incubated for 72 h in a humidified environment at 5% CO 2 at 37°C. Parasite motility after drug treatment was assessed by a digital image processing-based system (WormassayGP2, see Software availability) modified after Wormassay, [56], [57]. Egg production was assessed according to the methodology described by Edwards et al..

S. mansoni miracidia = assay: Miracidia to sporocyst transformation screens; type: cell-based, Schistosoma mansoni; conditions: 10 µM, 48 h
Description: Following hatching of S. mansoni eggs, miracidia were incubated on ice for 15 min and then centrifuged at 700 x g for 5 min at 4°C. The miracidia pellet was then re-suspended in 5 ml of Chernin's balanced salt solution (CBSS), subjected to pelleting and two subsequent washes (all at 700 x g for 5 min at 4°C). Afterwards, the supernatant was carefully removed with a serological pipette and the miracidia-enriched pellet was resuspended with CBSS supplemented with 1 mg/ml each of glucose and trehalose and 500 µl of Penicillin-Streptomycin (containing 10,000 units penicillin and 10 mg streptomycin/ml, P4333, Sigma-Aldrich). In preparation for the screens, CBSS (250 µl) was aliquoted to each well of a 24-well plate followed by addition of each compound in DMSO (1 mM concentration in 1% DMSO) or DMSO alone (1%, negative control). Next, approximately 20-25 miracidia (in 250 µl of CBSS) were aliquoted to each well. […] Both preliminary and secondary screens were performed in duplicate on two separate occasions (two independent biological replicates). Miracidia were incubated for 48 h at 26°C before being evaluated using an Olympus inverted light microscope for morphological and behavioural changes differing from the control wells. Dead, partially transformed and fully transformed miracidia were enumerated in the DMSO control and the assay plates as previously described, [23], [59]. […] Absence of ciliated plates attached to the surface of the parasite and formation of sporocyst tegument defined the so-called “fully transformed” parasites.

[1] = MTT cytotoxicity assay on HepG2 cells; type: cell-based, Human; conditions: human, HepG2 cells, MTT, 24 h; three dose response titrations (200 - 1 µM)
Description: (§1) Compound cytotoxicity on Human Hepatocyte Carcinoma (HepG2) cells (85011430, Sigma Aldrich) was elucidated by the MTT (3-(4,5-dimethylthiazol-2-yl)-2,5-diphenyltetrazolium bromide) tetrazolium reduction assay as previously described, [28], [50]. Briefly, HepG2 cells were seeded at a density of 20,000 per well in 96-well black, clear bottom falcon plate in modified BME medium (50 μl; containing 1% antibiotic/mycotic (Sigma-Aldrich, Gillingham, UK), 1% 200 mM L-glutammine (Gibco, Paisley, UK), 1% MEM non-essential amino acid solution (Gibco, Paisley, UK), and 10% fetal bovine serum (Gibco, Paisley, UK)). HepG2 plates seeded for cytotoxicity screens were treated with compounds 24 h post-seeding. Each compound was tested at 200, 100, 75, 50, 20, 10 and 1 µM; each concentration was assayed in triplicate. Blank wells (no cells), as well as positive (1% v/v Triton X-100, X100, Sigma-Aldrich) and negative (1.25% v/v DMSO or media only) controls, were included in each plate. After addition of compounds, each plate was then incubated for a further 20 h before application of MTT reagent for assessment of compound cytotoxicity (4 h incubation with MTT for a total 24 h cell-drug incubation). The absorbance reading at 570 nm was measured with a POLARstar Omega (BMG Labtech, UK) microtiter plate reader. Dose response curves were generated in GraphPad Prism 7.02 based on the corrected average absorbance of the three replicates for each concentration point.

HepG2 cells = assay: MTT cytotoxicity assay on HepG2 cells; type: cell-based, Human
Description: as §1

Schistosoma mansoni [2] = tested on: Schistosoma mansoni; set-up: method as in PMID 24037106; conditions: cited from earlier work
Schistosoma mansoni [3] = tested on: Schistosoma mansoni; set-up: method as in PMID 24037106; conditions: cited from earlier work; remark: listed apart in the source

## Cc1ccc(Nc2nc(C3CCCCC3)nc(N3CCNCC3)n2)cc1 [Compound 23]
S. mansoni schistosomula; 50 µM
  anti-schistosomula activity (hit on phenotype and motility): active at the highest concentration
S. mansoni schistosomula; read-out: Schistosomula EC50 Motility
  EC50: 2.79 µM
S. mansoni schistosomula; read-out: Schistosomula EC50 Phenotype
  EC50: 3.06 µM
S. mansoni adult worms; 6.25 µM, compared to compound 7
  adult worm motility and oviposition: strong anthelmintic activities
S. mansoni adult worms; 12.5 µM
  adult worm egg production: greater potency than compound 7
  adult worm motility compared to compound 7: greater potency than compound 7
S. mansoni miracidia
  effect on miracidia: readily killed miracidia
[1]
  CC50 at 24 h: < 10 µM
HepG2 cells; MTT, 24 h, three dose response titrations (200 - 1 µM)
  CC50: 6.73 µM
HepG2 cells; dose response titration
  cytotoxicity on HepG2 cells (in words): showed the highest toxicity

## Cc1ccc(NC(=O)c2ccc(CN3CCN(C)CC3)cc2)cc1Nc1nccc(-c2cccnc2)n1 [Imatinib]
Schistosoma mansoni [2]
  in vitro anti-schistosomal activity: potent in vitro anti-schistosomal activity
Schistosoma mansoni [3]
  in vivo anti-schistosomal activity: lost in vivo

Reference: paper PMC7459852, “Identification of 6-(piperazin-1-yl)-1,3,5-triazine as a chemical scaffold with broad anti-schistosomal activities” (Wellcome Open Research, 2020)
